Like-named read-outs stand apart in the source and are kept apart here.
What was measured:
SARS-CoV-1 3CLpro = SARS-CoV-1 3CLpro (Severe acute respiratory syndrome coronavirus (SARS-CoV), UniProt P0C6X7); format: biochemical
SARS-CoV-2 3CLpro = SARS-CoV-2 3CLpro (Severe acute respiratory syndrome coronavirus 2 (2019-nCoV) (SARS-CoV-2), UniProt P0DTD1); assay: biochemical; format: biochemical; details: read-out: SARS-CoV-2 IC50
SARS-CoV-2 [1] = assay: microbe, parasite or virus in culture; format: cell-based; details: read-out: CPE Inhibition Assay EC50
SARS-CoV-2 [2] = assay: microbe, parasite or virus in culture; format: cell-based; details: Severe acute respiratory syndrome coronavirus 2, Vero C1008, read-out: Plaque Reduction Assay EC50
[3] = Severe acute respiratory syndrome coronavirus 2, Vero C1008, 68 h

Structure (SMILES)	IC50 (SARS-CoV-1 3CLpro) [nM]	IC50 (SARS-CoV-2 3CLpro) [nM]	EC50 (SARS-CoV-2 [1]; [3]) [nM]	EC50 (SARS-CoV-2 [2]) [nM]	EC50 (SARS-CoV-2 [1]; Severe acute respiratory syndrome coronavirus 2, Vero C1008, Vero E6 ACE2 cells, 100 TCID50 SARS-CoV-2, 68 h after infection) [nM]
O=C(Cn1nnc2ccccc21)N(Cc1ccc(Cl)c(Cl)c1)c1ccc(-c2cccnc2)cc1 [Compound 30, 2-(Benzotriazol-1-yl)-N-[(3,4-dichlorophenyl)methyl]-N-[4-(3-pyridyl)phenyl]acetamide]	> 200000	> 200000			
O=C(Cn1nnc2ccccc21)N(Cc1cccc(Cl)c1)c1ccc(-c2cn[nH]c2)cn1 [Compound 40, 2-(Benzotriazol-1-yl)-N-[(3-chlorophenyl)methyl]-N-[5-(1H-pyrazol-4-yl)-2-pyridyl]acetamide]	214 ± 63	171 ± 29	1910 ± 300	3390 ± 210	
COc1cc(N(Cc2cccc(Cl)c2)C(=O)Cn2nnc3ccccc32)ccc1-c1cn[nH]c1 [Compound 37, 2-(Benzotriazol-1-yl)-N-[(3-chlorophenyl)methyl]-N-[3-methoxy-4-(1H-pyrazol-4-yl)phenyl]acetamide]		328 ± 27	2930 ± 280	3240 ± 270	
O=C(Cn1nnc2ccccc21)N(Cc1ccsc1)c1ccc(-c2c[nH]cn2)cc1 [Compound 21, 2-(Benzotriazol-1-yl)-N-[4-(1H-imidazol-4-yl)phenyl]-N-(3-thienylmethyl)acetamide]		60 ± 10	1740 ± 190	1750 ± 250	
O=C(Cn1nnc2ccccc21)N(Cc1cccc(Cl)c1)c1ccc(-c2cn[nH]c2)nc1 [Compound 39, 2-(Benzotriazol-1-yl)-N-[(3-chlorophenyl)methyl]-N-[6-(1H-pyrazol-4-yl)-3-pyridyl]acetamide]	336 ± 65	333 ± 93	3810 ± 180	4650 ± 110	
COc1cc(-c2cn[nH]c2)ccc1N(Cc1cccc(Cl)c1)C(=O)Cn1nnc2ccccc21 [Compound 38, 2-(Benzotriazol-1-yl)-N-[(3-chlorophenyl)methyl]-N-[2-methoxy-4-(1H-pyrazol-4-yl)phenyl]acetamide]		197 ± 50		2010 ± 490	2300 ± 330
O=C(Cn1nnc2ccccc21)N(Cc1cccc(Cl)c1)c1ccc(-c2cn[nH]c2)cc1 [Compound 36, N-(4-(1H-Pyrazol-4-yl)phenyl)-2-(1H-benzo[d][1,2,3]triazol-1-yl)-N-(3-chlorobenzyl)acetamide]		270 ± 67	1980 ± 240	3310 ± 100	
O=C(Nc1ccc(N(Cc2ccsc2)C(=O)Cn2nnc3ccccc32)cc1)C1CC1 [ML300, N-(4-(2-(1H-benzo[d][1,2,3]triazol-1-yl)-N-(thiophen-3-ylmethyl)acetamido)phenyl)cyclopropanecarboxamide, reference compound]		4990 ± 620	19900 ± 6320	28200 ± 1300	
O=C(Cn1nnc2ccccc21)N(CC1CCOC1)c1ccc(-c2cccnc2)cc1 (centres unmarked) [Compound 26, 2-(1H-Benzo[d][1,2,3]triazol-1-yl)-N-(4-(pyridin-3-yl)phenyl)-N-((tetrahydrofuran-3-yl)methyl)acetamide]	20500 ± 1590	23000 ± 1380			
O=C(Cn1nnc2ccccc21)N(Cc1cc(F)cc(Cl)c1)c1ccc(-c2cccnc2)cc1 [Compound 31, 2-(Benzotriazol-1-yl)-N-[(3-chloro-5-fluoro-phenyl)methyl]-N-[4-(3-pyridyl)phenyl]acetamide]	74 ± 10	119 ± 5			
